This note sets out measurements from US7351737B2, “4-[(8-substituted)-6-chromanoyl]-and 4-[8-substituted)-chroman-6-YL-ethynyl]-benzoic and phenylacetic acids, their esters and salts having cytochrome P450RAI inhibitory activity” (Allergan, Inc., priority 2002, dated 2008).

One experiment concerns skin of fuzzy rats. Briefly: Topical skin irritation test. It counts as in vivo, female fuzzy rats (Hsd:FUZZY-fz). The conditions noted are these: topical in acetone, daily Day 1-14, group average of grade 0-4. The source says:
The topical retinoid all-trans-retinoic acid (ATRA) and oral retinoids such as 13-cis RA and etretinate are known to induce substantial skin irritation in humans. This irritation is a direct result of activation of the RAR nuclear receptors. Analysis of retinoid topical irritation is also a highly reproducable method of determining in vivo retinoid potency. The female fuzzy rats provide a convenient animal model of topical irritation, since retinoid-induced skin flaking and abrasion can be readily scored by eye, while their larger size than those of mice also allows multiple sampling of serum for clinical analyses. Topical application of P450RAI inhibitors should cause an increase in the endogenous levels of ATRA that would result in ATRA-induced irritation in skin of hairless mice. In these tests female fuzzy rats ((Hsd:FUZZY-fz), 6-7 weeks old, were obtained from Harlan Sprague-Dawley (Indianapolis, Ind.). The animals were about 8-9 weeks old at the start of the experiments. Food (Purina Rodent Chow 5001) and water purified by reverse osmosis were provided ad libitum. The rats were housed individually throughout the dosing period. Test chemicals were dissolved in acetone (vehicle) for application to the backs of the rats. Two days prior to actual administration of the test compounds, rats were handled daily and dosed with vehicle at a volume of 0.5 ml/kg. Starting on Day 1 thought Day 14 (dosing period), animals were dosed with the vehicle or compound(s) according to their group assignment. The rats in the tests were observed daily and the dorsal skin was graded for the degree of erythema/eschar and overall appearance. The scoring was in accordance with Table 2, below. [table] Daily group average was calculated by dividing the sum of the individual grade by the number of animals in each treatment group. The attached data in Table 3 indicates the retinoid-mimetic effects of some P450RAI inhibitors on the skin of fuzzy rats in the above described tests and in accordance with the above-indicated scoring.

A further experiment addresses T1, RARα (Homo sapiens, UniProt P10276).
T1 sequence (P10276 183-417 limits assumed): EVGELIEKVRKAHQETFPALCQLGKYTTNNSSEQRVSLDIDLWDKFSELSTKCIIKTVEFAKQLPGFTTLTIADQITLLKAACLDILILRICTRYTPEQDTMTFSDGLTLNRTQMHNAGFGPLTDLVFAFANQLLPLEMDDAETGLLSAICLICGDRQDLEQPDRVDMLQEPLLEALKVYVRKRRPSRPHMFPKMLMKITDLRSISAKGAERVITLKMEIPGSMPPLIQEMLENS
The experiment in a line: chimeric receptor transactivation assay, RARα. It counts as cell-based. The conditions noted are these: for RAR α (EFFICACY): value in brackets. The source says:
(§1) Assays described below measure the ability of a compound to bind to, and/or activate various retinoid receptor subtypes. When in these assays a compound binds to a given receptor subtype and activates the transcription of a reporter gene through that subtype, then the compound is considered an agonist of that receptor subtype. […] In the below described assays the ability of the compounds to bind to RARα, RARβ, RARγ, RXRα, RXRβ and RXRγ receptors, and the ability or inability of the compounds to activate transcription of a reporter gene through these receptor subtypes can be tested.
(§2) As far as specific assays are concerned, a chimeric receptor transactivation assay which tests for agonist-like activity in the RARα, RARβ, and RARγ, receptor subtypes, and which is based on work published by Feigner P. L. and Holm M. (1989) Focus, 112 is described in detail in U.S. Pat. No. 5,455,265. The specification of U.S. Pat. No. 5,455,265 is hereby expressly incorporated by reference. The numeric results obtained with several preferred compounds of this invention in this assay are shown below in Table 1.
(§3) A holoreceptor transactivation assay and a ligand binding assay which measure the antagonist/agonist like activity of the compounds of the invention, or their ability to bind to the several retinoid receptor subtypes, respectively, are described in published PCT Application No. WO WO93/11755 (particularly on pages 30-33 and 37-41) published on Jun. 24, 1993, the specification of which is also incorporated herein by reference. A detailed experimental procedure for holoreceptor transactivations has been described by Heyman et al. Cell 68, 397-406, (1992); Allegretto et al. J. Biol. Chem. 268, 26625-26633, and Mangelsdorf et al. The Retinoids: Biology, Chemistry and Medicine, pp 319-349, Raven Press Ltd., New York, which are expressly incorporated herein by reference. The results obtained in this assay are expressed in EC50 numbers, as they are also in the chimeric receptor transactivation assay. The results of ligand binding assay are expressed in Kd numbers. (See Cheng et al. Biochemical Pharmacology Vol. 22 pp 3099-3108, expressly incorporated herein by reference.)

A further experiment concerns the target T2, RARγ (Homo sapiens, UniProt P13631).
T2 sequence (P13631 185-419 limits assumed): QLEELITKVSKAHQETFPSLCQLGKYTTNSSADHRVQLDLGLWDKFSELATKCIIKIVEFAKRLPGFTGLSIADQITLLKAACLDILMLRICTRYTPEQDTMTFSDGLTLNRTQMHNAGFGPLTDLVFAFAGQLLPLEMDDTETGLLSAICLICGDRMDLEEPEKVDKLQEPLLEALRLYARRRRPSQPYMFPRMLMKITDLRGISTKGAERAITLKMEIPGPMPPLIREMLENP
Briefly: chimeric receptor transactivation assay, RARγ. In kind it is cell-based. Particulars: for RAR γ (EFFICACY): value in brackets.
Text: as §1, §2, §3

For a further experiment, the target named is T3, RARβ (Homo sapiens, UniProt P10826).
T3 sequence (P10826 183-417 limits assumed): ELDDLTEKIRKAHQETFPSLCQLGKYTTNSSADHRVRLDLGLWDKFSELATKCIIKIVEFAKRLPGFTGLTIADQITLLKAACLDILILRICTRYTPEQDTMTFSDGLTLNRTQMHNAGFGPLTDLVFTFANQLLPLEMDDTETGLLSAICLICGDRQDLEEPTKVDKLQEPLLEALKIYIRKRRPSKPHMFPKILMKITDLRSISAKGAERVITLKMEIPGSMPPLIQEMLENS
The experiment in a line: chimeric receptor transactivation assay, RARβ. The conditions noted are these: first item of cell EC50/(EFFICACY)/Kd, read-out: RAR β EC50. It counts as cell-based.
Text: as §1
As far as specific assays are concerned, a chimeric receptor transactivation assay which tests for agonist-like activity in the RARα, RARβ, and RARγ, receptor subtypes, and which is based on work published by Feigner P. L. and Holm M. (1989) Focus, 112 is described in detail in U.S. Pat. No. 5,455,265. The specification of U.S. Pat. No. 5,455,265 is hereby expressly incorporated by reference. The numeric results obtained with several preferred compounds of this invention in this assay are shown below in Table 1. […]

As for `C#Cc1cc(C(=O)Oc2ccc(CC(=O)O)cc2)cc2c1OC(C)(C)CC2(C)C` [Compound 1, 8-Ethynyl-2,2,4,4-tetramethyl-chroman-6-carboxylic acid 4-carboxymethyl-phenyl ester], the results for the “Irritation Score on day 14” value in the experiment with skin of fuzzy rats (3% compound + 0.1% retinol) and with skin of fuzzy rats (3% compound alone) were 1 and 2.6, respectively.

Turning to `C#Cc1cc(C(=O)Oc2ccc(CC(=O)OCOC(C)=O)c(F)c2)cc2c1OC(C)(C)CC2(C)C` [Compound 5, 8-Ethynyl-2,2,4,4-tetramethyl-chroman-6-carboxylic acid 4-acetoxymethoxycarbonylmethyl-3-fluoro-phenyl ester], the “Irritation Score on day 14” value was 2.2 in the experiment with skin of fuzzy rats (0.1% compound + 0.1% retinol) and 0.4 in the experiment on skin of fuzzy rats (0.1% compound alone). Further, the “RAR α (EFFICACY)” value at RARα was 10.

Take `C#Cc1cc(C#Cc2ccc(CC(=O)O)c(F)c2)cc2c1OC(C)(C)CC2(C)C` [Compound 41, [4-(8-Ethynyl-2,2,4,4-tetramethyl-chroman-6-ylethynyl)-2-fluoro-phenyl]-acetic acid]: the “RAR γ (EFFICACY)” value at RARγ is 20. The “RAR α (EFFICACY)” value at RARα is on record as 10.

In the case of `C#Cc1cc(C(=O)Oc2ccc(CC(=O)OCOC(C)=O)cc2)cc2c1OC(C)(C)CC2(C)C` [Compound 3, 8-Ethynyl-2,2,4,4-tetramethyl-chroman-6-carboxylic acid 4-acetoxymethoxycarbonylmethyl-phenyl ester], the results for the “Irritation Score on day 14” value with skin of fuzzy rats (1% compound + 0.1% retinol) and in the experiment with skin of fuzzy rats (1% compound alone) were 2.4 and 0, respectively.

Consider `C#Cc1cc(C(=O)Oc2ccc(CC(=O)OCC)cc2)cc2c1OC(C)(C)CC2(C)C` [Compound 2, 8-Ethynyl-2,2,4,4-tetramethyl-chroman-6-carboxylic acid 4-ethoxycarbonylmethyl-phenyl ester], for which the “Irritation Score on day 14” value amounted to 1.6 with skin of fuzzy rats (1% compound + 0.1% retinol) and 0 with skin of fuzzy rats (1% compound alone).

For orientation: EC50 means the concentration needed to bring the measured effect to its halfway point. Consider `C#Cc1cc(C#Cc2ccc(CC(=O)O)cc2)cc2c1OC(C)(C)CC2(C)C` [Compound 40, [4-(8-Ethynyl-2,2,4,4-tetramethyl-chroman-6-ylethynyl)-phenyl]-acetic acid], for which the concentration for a half-maximal effect (EC50) was determined as 149 nM at RARγ (first item of cell EC50/(EFFICACY)/Kd, read-out: RAR γ EC50); 101 nM at RARβ; 129 nM at RARα (first item of cell EC50/(EFFICACY)/Kd, read-out: RAR α EC50). In addition, the “RAR γ (EFFICACY)” value on RARγ amounted to 30. Moreover, the “RAR α (EFFICACY)” value on RARα was determined as 15.

For `C#Cc1cc(C(=O)Oc2ccc(CC(=O)O)c(F)c2)cc2c1OC(C)(C)CC2(C)C` [Compound 4, 8-Ethynyl-2,2,4,4-tetramethyl-chroman-6-carboxylic acid-4-carboxymethyl-3-fluoro-phenyl ester], the “RAR γ (EFFICACY)” value at RARγ was 20. In addition, the EC50 on RARβ amounted to 263 nM. Further, the “Irritation Score on day 14” value is recorded as 3.4 in the experiment on skin of fuzzy rats (1% compound + 0.1% retinol) and 1.4 in the experiment with skin of fuzzy rats (1% compound alone). For the same molecule, the “RAR α (EFFICACY)” value at RARα was 20.
